Results reported in patent US20030086972A1, “Hydrogel-driven drug dosage form” (priority 2000, published 2003).
≈ marks a conversion by molar mass, not a printed value. Counter-ions that a name gives are not always drawn. Like-named read-outs stand apart in the source and are kept apart here. Each block holds one compound with its values, some of them ahead of it.

What was measured:
[1] = cited from earlier work
[2] = Aqueous solubility of the drug

Compound: CN[C@H]1CC[C@@H](c2ccc(Cl)c(Cl)c2)c2ccccc21 [sertraline]
solubility (in words) ([1]; low pH): moderate solubility
solubility (in words) ([1]; pH of about 7.5): extremely low solubility
solubility (in words) ([1]; pH values above 5): low solubility

Compound: 4-[3-[4-(2-methylimidazol-1 -yl) phenylthio]phenyl]-3,4,5,6-tetrahydro-2H-pyran-4-carboxamide hemifumarate [Drug 3]
solubility ([2]; pH 4): 3.7 mgA/mL

solubility ([2]; aqueous, pH 7.6, aqueous buffer): 400 µg/mL (≈ 785 µM)
Compound: COc1cc2nc(N3CCCN(C(=O)N4CCOCC4)CC3)cc(N)c2c(-c2ccc(F)cc2)c1OC [Drug 5, 4-amino-5-(4-fluorophenyl)-6,7-dimethoxy-2-[4-(morpholinocarbonyl)perhydro-1,4-diazepin-1-yl]quinoline]

solubility ([2]; aqueous, pH 7, aqueous buffer): 200 µg/mL
Compound: CN[C@H]1CC[C@@H](c2ccc(Cl)c(Cl)c2)c2ccccc21 [Drug 2, sertraline HCl]
